This passage reports IC50 results from patent publication US20150344427A1 (EPIZYME, INC., priority 2012, published 2015).

This assay concerns H3K27 trimethylation in WSU-DLCL2 cells. Kind of assay: WSU-DLCL2 Methylation Assay (H3K27me3 ELISA). Type of assay: cell-based. Particulars: Homo sapiens, WSUDLCL2, 96 hours incubation, H3K27me3 normalised to total Histone H3. From the text: WSU-DLCL2 suspension cells were purchased from DSMZ (German Collection of Microorganisms and Cell Cultures, Braunschweig, Germany). RPMI/Glutamax Medium, Penicillin-Streptomycin, Heat Inactivated Fetal Bovine Serum, and D-PBS were purchased from Life Technologies, Grand Island, N.Y., USA. Extraction Buffer and Neutralization Buffer (5×) were purchased from Active Motif, Carlsbad, Calif., USA. Rabbit anti-Histone H3 antibody was purchased from Abcam, Cambridge, Mass., USA. Rabbit anti-H3K27me3 and HRP-conjugated anti-rabbit-IgG were purchased from Cell Signaling Technology, Danvers, Mass., USA. TMB “Super Sensitive” substrate was sourced from BioFX Laboratories, Owings Mills, Md., USA. IgG-free Bovine Serum Albumin was purchased from Jackson ImmunoResearch, West Grove, Pa., USA. PBS with Tween (10×PBST) was purchased from KPL, Gaithersburg, Md., USA. Sulfuric Acid was purchased from Ricca Chemical, Arlington, Tex., USA. Immulon ELISA plates were purchased from Thermo, Rochester, N.Y., USA. V-bottom cell culture plates were purchased from Corning Inc., Corning, N.Y., USA. V-bottom polypropylene plates were purchased from Greiner Bio-One, Monroe, N.C., USA.
WSU-DLCL2 suspension cells were maintained in growth medium (RPMI 1640 supplemented with 10% v/v heat inactivated fetal bovine serum and 100 units/mL penicillin-streptomycin) and cultured at 37° C. under 5% CO2 Under assay conditions, cells were incubated in Assay Medium (RPMI 1640 supplemented with 20% v/v heat inactivated fetal bovine serum and 100 units/mL penicillin-streptomycin) at 37° C. under 5% CO2 on a plate shaker.
WSU-DLCL2 cells were seeded in assay medium at a concentration of 50,000 cells per mL to a 96-well V-bottom cell culture plate with 200 μL per well. Compound (1 μL) from 96 well source plates was added directly to V-bottom cell plate. Plates were incubated on a titer-plate shaker at 37° C., 5% CO2 for 96 hours. After four days of incubation, plates were spun at 241×g for five minutes and medium was aspirated gently from each well of cell plate without disturbing cell pellet. Pellet was resuspended in 200 μL DPBS and plates were spun again at 241×g for five minutes. The supernatant was aspirated and cold (4° C.) Extraction buffer (100 μL) was added per well. Plates were incubated at 4° C. on orbital shaker for two hours. Plates were spun at 3427×g×10 minutes. Supernatant (80 μL per well) was transferred to its respective well in 96 well V-bottom polypropylene plate. Neutralization Buffer 5× (20 μL per well) was added to V-bottom polypropylene plate containing supernatant. V-bottom polypropylene plates containing crude histone preparation (CHP) were incubated on orbital shaker x five minutes. Crude Histone Preparations were added (2 μL per well) to each respective well into duplicate 96 well ELISA plates containing 100 μL Coating Buffer (1×PBS+BSA 0.05% w/v). Plates were sealed and incubated overnight at 4° C. The following day, plates were washed three times with 300 μL per well 1×PBST. Wells were blocked for two hours with 300 μL per well ELISA Diluent ((PBS (1×) BSA (2% w/v) and Tween20 (0.05% v/v)). Plates were washed three times with 1×PBST. For the Histone H3 detection plate, 100 μL per well were added of anti-Histone-H3 antibody (Abcam, ab1791) diluted 1:10,000 in ELISA Diluent. For H3K27 trimethylation detection plate, 100 μL per well were added of anti-H3K27me3 diluted 1:2000 in ELISA diluent. Plates were incubated for 90 minutes at room temperature. Plates were washed three times with 300 μL 1×PBST per well. For Histone H3 detection, 100 μL of HRP-conjugated anti-rabbit IgG antibody diluted to 1:6000 in ELISA diluent was added per well. For H3K27me3 detection, 100 μL of HRP conjugated anti-rabbit IgG antibody diluted to 1:4000 in ELISA diluent was added per well. Plates were incubated at room temperature for 90 minutes. Plates were washed four times with 1×PBST 300 μL per well. TMB substrate 100 μL was added per well. […]
In general terms: An ELISA detects its analyte on a solid surface through an enzyme-linked reagent.
As usually defined, the IC50 is the point on the concentration scale where inhibition reaches its midpoint. Lower therefore signals higher potency. For the compound `CCN(c1cc(Cl)cc(C(=O)NCc2c(C)[nH]c(C)cc2=O)c1C)[C@H]1CC[C@H](N(C)C)CC1` [Compound 1, 5-chloro-N-((2,6-dimethyl-4-oxo-1,4-dihydropyridin-3-yl)methyl)-3-(((trans)-4-(dimethylamino)cyclohexyl)(ethyl)amino)-2-methylbenzamide], the IC50 turned out to be 8.44 µM.

For `CCN(c1cc(Cl)cc(C(=O)NCc2c(C)n(C)c(C)cc2=O)c1C)[C@H]1CC[C@H](N(C)C)CC1` [Compound 86], the 50% inhibitory concentration (IC50) was > 50 µM.

On to `CCn1c(C)cc(=O)c(CNC(=O)c2cc(Cl)cc(N(CC)[C@H]3CC[C@H](N(C)C)CC3)c2C)c1C` [Compound 87], for which the IC50 was > 50 µM.

`CCN(c1cc(-c2ccc(COC)nc2)cc(C(=O)NCc2c(Cl)[nH]c(C)cc2=O)c1C)[C@H]1CC[C@H](N(C)C)CC1` [Compound 88] returned an IC50 of 2.4 µM.

In the case of `CCN(c1cc(-c2cnn(C)c2)cc(C(=O)NCc2c(Cl)[nH]c(C)cc2=O)c1C)[C@H]1CC[C@H](N(C)C)CC1` [Compound 89], the IC50 turned out to be 5.9 µM.

Regarding `CCN(c1cc(-c2ccc(C)nc2)cc(C(=O)NCc2c(Cl)[nH]c(C)cc2=O)c1C)[C@H]1CC[C@H](N(C)C)CC1` [Compound 90], the half-inhibitory concentration (IC50) was 2.7 µM.

Consider `CCN(c1cc(-c2cnc(C)cn2)cc(C(=O)NCc2c(Cl)[nH]c(C)cc2=O)c1C)[C@H]1CC[C@H](N(C)C)CC1` [Compound 91], for which the half-maximal inhibitory concentration (IC50) stood at 3.3 µM.

Compound `CCN(c1cc(-c2ccc(OCCOC)cc2)cc(C(=O)NCc2c(Cl)[nH]c(C)cc2=O)c1C)[C@H]1CC[C@H](N(C)C)CC1` [Compound 92] yielded a half-maximal inhibitory concentration (IC50) of 3.9 µM.

`CCN(c1cc(-c2ccc(OCCOC)cc2)cc(C(=O)NCc2c(C)[nH]c(C)cc2=O)c1C)[C@H]1CC[C@H](N(C)C)CC1` [Compound 93] showed a half-maximal inhibitory concentration (IC50) of 1.7 µM.

`CCCN(c1cc(-c2ccc(OCCOC)cc2)cc(C(=O)NCc2c(C)[nH]c(C)cc2=O)c1C)[C@H]1CC[C@H](N(C)C)CC1` [Compound 94] showed an IC50 of 5.1 µM.

Compound `CCN(c1cc(-c2ccc(OCCOC)cc2)cc(C(=O)NCc2c(C)[nH]c(C)cc2=O)c1C)[C@H]1CC[C@H](N(C)CCOC)CC1` [Compound 100] yielded a half-inhibitory concentration (IC50) of 7.5 µM.
